We go through 3 molecules from patent publication US10676437B2, “Fluorinated 4-(substituted amino)phenyl carbamate derivatives” (SciFluor Life Sciences, Inc., priority 2017, dated 2020).

As usually defined, the EC50 is the midpoint of the concentration-response curve.

Common to all, as to format: cell-based
The target of one experiment is T1, human Kv7.2/7.3 channels (Homo sapiens, UniProt O43525+O43526).
T1 construct: expressed in transfected cells
Kind of experiment: Syncropatch automated patch clamp, activation of recombinantly expressed human Kv7.2/7.3 (KCNQ2/3) channels in CHO cells. The note with it: shift in G-V midpoint (Δ V0.5) vs concentration. On the procedure:
The in vitro effects of a compound of the present application recombinantly expressed human Kv7.2/7.3 channels are assessed on Syncropatch high throughput electrophysiology platform.
CHO cells stably expressing human Kv7.2/7.3 channels were cultured in Ham's F-12 media (Hyclone, Cat # SH30022.02) supplemented with 10% Fetal Bovine Serum, 1×MEM non-essential amino acids, and 400 μg/ml G418 at 37° C. in 5% CO2. On the day of Syncropatch, the cells were washed once in DPBS (Hyclone, Cat # SH30028.03) for approximately 30 seconds. 1 ml of 1×0.015% Trypsin-EDTA GIBCO Cat #25300-054) was added and swirled around to cover the bottom of the flask, and allowed to sit on the cells for about 4 minutes (approximately 90% of the cells were lifted by light tapping of the flask). 10 ml of cold media (Ham's F-12 media (Hyclone, Cat # SH30022.02) supplemented with 10% Fetal Bovine Serum, 1×MEM non-essential amino acids, and 400 μg/ml G418) was added to inactivate Trypsin. The cells were then triturated until a single cell suspension was achieved, and the cell count was performed. The cells were then diluted to a concentration of 5×10^5/ml and placed into the “cell hotel” on the deck of the Syncropatch at 10° C. for about 1 hour to recover. 40 μL of the cell suspension was dispensed into each well of a 384-well Syncropatch chip by the onboard pipettor at the beginning of each Syncropatch assay.
The compounds to be tested were dissolved in DMSO to give 10 mM stock solutions. […]
Kv7 channels were evaluated using a voltage protocol in which cells were voltage-clamped at a holding potential of −110 mV. […]
Data was collected on the Syncropatch platform using PatchControl software (Nanion) and processed and analyzed using DataControl Software (Nanion). Normalized percent activation was calculated and activation curves were fit with a Boltzmann function to determine the midpoint voltage of activation (G-V midpoint) for both pre-compound and post-compound conditions for each of the 384-wells of a sealchip with Pipeline Pilot (Accelrys). […]
In general terms: Patch clamp records ionic current or voltage across a cell membrane.

The target of a further experiment is KCNQ4 (Homo sapiens, UniProt P56696). Kind of experiment: Automated patch clamp, activation of KCNQ4 channels. The note with it: for Selectivity KCNQ4 EC50 / KCNQ2/3 EC50: ratio of EC50 values. On the procedure: (§1) Electrophysiological studies of the compounds were performed using the Nanion SyncroPatch automated patch clamp platform.
(§2) Kv7 channels were evaluated using a voltage protocol in which cells were voltage-clamped at a holding potential of −110 mV. Potassium currents were activated with a series of voltage steps from −110 mV to +50 mV in 10 mV intervals with 5.5 seconds between successive voltage steps. Each voltage step was 3 seconds in duration and immediately followed by a 1 second voltage step to −120 mV to generate an inward “tail” current to allow construction of activation (G-V) curves by plotting normalized peak tail current versus the potential of the activating voltage step. To obtain normalized values, peak current amplitudes for successive depolarizing pulses were normalized against the maximum tail current amplitude generated at +50 mV (Tatulian et al., Journal of Neuroscience 2001, 21 (15)).
(§3) Data was collected on the Syncropatch platform using PatchControl software (Nanion) and processed and analyzed using DataControl Software (Nanion). Normalized percent activation was calculated and activation curves were fit with a Boltzmann function to determine the midpoint voltage of activation (G-V midpoint) for both pre-compound and post-compound conditions for each of the 384-wells of a sealchip with Pipeline Pilot (Accelrys). The difference in G-V midpoint between pre-compound and post-compound conditions (Δ V0.5) was plotted as a function of concentration and concentration-response curves were fit with a three-parameter logistic equation {Y=Bottom+(Top−Bottom)/(1+10^(Log EC50−X))} for determination of the EC50 (Graphpad Prism).

The target of a further experiment is KCNQ3/5 (Homo sapiens, UniProt O43525+Q9NR82). The experiment in a line: Automated patch clamp, activation of KCNQ3/5 channels. Conditions: for Selectivity KCNQ3/5 EC50 / KCNQ2/3 EC50: ratio of EC50 values. On the procedure:
as §1, §2, §3

Molecules are shown by their SMILES. A value given as a limit tells only on which side of the number the result lay.

Take `Cc1c(F)c(N2CCc3cc(F)ccc3C2)c(F)c(C)c1NC(=O)CC(C)(C)C` [Compound 1, N-(3,5-difluoro-4-(6-fluoro-3,4-dihydroisoquinolin-2 (1H)-yl)-2,6-dimethylphenyl)-3,3-dimethylbutanamide]: the EC50 at human Kv7.2/7.3 channels lay within 0.1 to 1 µM. Also, on KCNQ4, the EC50 is ≥ 10 µM and the “Selectivity KCNQ4 EC50 / KCNQ2/3 EC50” value is reported as “VI (VI: ≥100)”. At KCNQ3/5, the EC50 lay in the range of 1 to 10 µM and the “Selectivity KCNQ3/5 EC50 / KCNQ2/3 EC50” value is “III (III: 5 to <10)”.
As for `C#CCN(Cc1ccc(F)cc1)c1ccc(NC(=O)OCC)c(N)c1` [Control, reference compound], the EC50 at human Kv7.2/7.3 channels is < 0.1 µM; on KCNQ4 it was 0.1 to 1 µM; on KCNQ3/5, < 0.1 µM. The “Selectivity KCNQ4 EC50 / KCNQ2/3 EC50” value on KCNQ4 is reported as “IV (IV: 10 to <50)”. Besides, the “Selectivity KCNQ3/5 EC50 / KCNQ2/3 EC50” value on KCNQ3/5 is listed as “I (I: <1)”.
As for `Cc1c(F)c(NCc2ccc(F)cc2)c(F)c(C)c1NC(=O)CC(C)(C)C` [Compound 2, N-(3,5-difluoro-4-((4-fluorobenzyl)amino)-2,6-dimethylphenyl)-3,3-dimethylbutanamide], the EC50 on human Kv7.2/7.3 channels was < 0.1 µM. In addition, on KCNQ4, the EC50 was 1 to 10 µM and the “Selectivity KCNQ4 EC50 / KCNQ2/3 EC50” value is “V (V: 50 to <100)”. Also, on KCNQ3/5, the EC50 was in the range of 0.1 to 1 µM and the “Selectivity KCNQ3/5 EC50 / KCNQ2/3 EC50” value was “IV (IV: 10 to <50)”.
